Measurements from patent US7566712B2, “Biaryl piperazinyl-pyridine analogues” (Neurogen Corporation, priority 2003, dated 2009).

The molecules below were run against T1, human capsaicin receptor (Homo sapiens, UniProt Q8NER1) (assay: Calcium mobilization assay, determination of antagonist activity (Example 6)). Details: Table II; IC50 determined as described in Example 6.
T1 construct: pBK-CMV expression construct encoding the full length human capsaicin receptor; expressed in transfected cells
T1 sequence (Q8NER1 whole entry): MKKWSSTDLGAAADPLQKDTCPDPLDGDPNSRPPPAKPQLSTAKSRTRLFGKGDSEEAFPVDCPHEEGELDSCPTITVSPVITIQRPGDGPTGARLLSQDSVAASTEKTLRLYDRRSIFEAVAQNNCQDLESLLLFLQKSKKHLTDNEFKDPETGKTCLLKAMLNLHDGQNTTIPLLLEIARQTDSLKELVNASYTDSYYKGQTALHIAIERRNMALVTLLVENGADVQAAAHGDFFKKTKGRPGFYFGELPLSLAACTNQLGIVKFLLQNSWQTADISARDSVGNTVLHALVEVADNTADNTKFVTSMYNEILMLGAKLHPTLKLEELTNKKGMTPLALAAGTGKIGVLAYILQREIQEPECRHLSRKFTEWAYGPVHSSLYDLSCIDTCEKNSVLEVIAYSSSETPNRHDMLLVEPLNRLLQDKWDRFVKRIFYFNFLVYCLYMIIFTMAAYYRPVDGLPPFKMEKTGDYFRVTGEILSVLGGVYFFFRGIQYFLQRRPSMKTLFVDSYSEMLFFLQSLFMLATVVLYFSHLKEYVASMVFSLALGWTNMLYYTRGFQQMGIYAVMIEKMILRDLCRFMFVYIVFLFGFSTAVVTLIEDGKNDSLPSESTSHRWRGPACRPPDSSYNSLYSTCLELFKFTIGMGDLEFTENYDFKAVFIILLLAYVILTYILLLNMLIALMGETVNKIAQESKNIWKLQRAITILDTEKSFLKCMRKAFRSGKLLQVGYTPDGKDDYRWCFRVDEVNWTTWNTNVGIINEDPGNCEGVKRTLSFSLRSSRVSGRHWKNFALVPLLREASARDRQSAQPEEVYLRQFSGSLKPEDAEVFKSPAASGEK
Type: cell-based
Summary of the method: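 Antagonism measured as inhibition of capsaicin-evoked (final concentration = EC50, from an 8-point 1 nM–3 μM curve) Fluo-3 calcium signal in stable hVR1-HEK293 cells. Test compounds at 1–5 μM final, 0.5–6 h dark preincubation at room temperature. IC50 = concentration giving 50% reduction versus agonist-only response.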

IC50, ≤ 1 µM:
N#Cc1ccc(-c2nc(N3CCOCC3)nc(N3CCN(c4ncccc4C(F)(F)F)CC3)n2)cc1 [Example 436, 4-(4-morpholin-4-yl-6-{4-[3-(trifluoromethyl)pyridin-2-yl]piperazin-1-yl}-1,3,5-triazin-2-yl)benzonitrile]
C[C@@H]1CN(c2ncccc2Cl)CCN1c1cc(-c2ccc3ccccc3c2)nc(N2CCOCC2)n1 [Example 492, 4-[4-[(2R)-4-(3-chloropyridin-2-yl)-2-methylpiperazin-1-yl]-6-(2-naphthyl)pyrimidin-2-yl]morpholine]
C=CCN1CCN(c2nc(-c3ccc(F)cc3)nc(N3CCN(c4ncccc4C(F)(F)F)CC3)n2)CC1 [Example 446, 2-(4-allylpiperazin-1-yl)-4-(4-fluorophenyl)-6-{4-[3-(trifluoromethyl)pyridin-2-yl]piperazin-1-yl}-1,3,5-triazine]
Cc1ccc(-c2cc(N3CCN(c4ncccc4Cl)C[C@H]3C)nc(N3CCOCC3)n2)cc1F [Example 496, 4-[4-[(2R)-4-(3-chloropyridin-2-yl)-2-methylpiperazin-1-yl]-6-(3-fluoro-4-methylphenyl)pyrimidin-2-yl]morpholine]
CSc1cccc(-c2cc(N3CCN(c4ncccc4C(F)(F)F)C[C@H]3C)nc(N3CCOCC3)n2)c1 [Example 538, 4-(4-[3-(methylthio)phenyl]-6-{(2R)-2-methyl-4-[3-(trifluoromethyl)pyridin-2-yl]piperazin-1-yl}pyrimidin-2-yl)morpholine]

Same assay, conditions: Table II; IC50 determined as described in Example 6 (antagonist activity, calcium mobilization)

IC50, ≤ 1 µM:
Cc1ccc(-c2cc(N3CCN(c4ncccc4Cl)C[C@H]3C)nc(N3CCOCC3)n2)cc1F [Example 980, 4-[4-[(2R)-4-(3-chloropyridin-2-yl)-2-methylpiperazin-1-yl]-6-(3-fluoro-4-methylphenyl)pyrimidin-2-yl]morpholine]
C[C@H]1CN(c2nccnc2Cl)CCN1c1cc(-c2ccc(F)c(Cl)c2)nc(N2CCCC2)n1 [Example 974, 4-(3-chloro-4-fluorophenyl)-6-[(2S)-4-(3-chloropyrazin-2-yl)-2-methylpiperazin-1-yl]-2-pyrrolidin-1-ylpyrimidine]

Same assay, conditions: Table II; determined as described in Example 6 (antagonist activity); "*" = 1 micromolar or less

IC50, ≤ 1 µM:
CCOC(=O)C1CCN(c2nc(-c3ccc(F)c(Cl)c3)cc(N3CCN(c4ncccc4C(F)(F)F)CC3)n2)CC1 [Example 797, ethyl 1-(4-(3-chloro-4-fluorophenyl)-6-{4-[3-(trifluoromethyl)pyridin-2-yl]piperazin-1-yl}pyrimidin-2-yl)piperidine-4-carboxylate]
CCCN1CCN(c2nc(-c3ccc(F)c(Cl)c3)cc(N3CCN(c4ncccc4C)CC3)n2)CC1 [Example 889, 4-(3-chloro-4-fluorophenyl)-6-[4-(3-methylpyridin-2-yl)piperazin-1-yl]-2-(4-propylpiperazin-1-yl)pyrimidine]
C[C@H]1CN(c2ncccc2Cl)CCN1c1cc(-c2ccc(Cl)c(F)c2)nc(N2CCCC2)n1 [Example 957, 4-(4-chloro-3-fluorophenyl)-6-[(2S)-4-(3-chloropyridin-2-yl)-2-methylpiperazin-1-yl]-2-pyrrolidin-1-ylpyrimidine]
COc1ncc(Cl)c(N2CCN(c3cc(-c4ccc(F)cc4)nc(N4CCC[C@H]4C)n3)[C@H](C)C2)n1 [Example 966, 5-chloro-4-((3R)-4-{6-(4-fluorophenyl)-2-[(2R)-2-methylpyrrolidin-1-yl]pyrimidin-4-yl}-3-methylpiperazin-1-yl)-2-methoxypyrimidine]

Same assay, conditions: Table II; determined as described in Example 6; class symbol

IC50, ≤ 1 µM:
CCc1cccc(-c2nc(N3CCOCC3)nc(N3CCN(c4ccccn4)CC3)n2)c1 [Example 237, 2-(3-ethylphenyl)-4-morpholin-4-yl-6-(4-pyridin-2-ylpiperazin-1-yl)-1,3,5-triazine]
Cc1cccc(-c2nc(N3CCOCC3)nc(N3CCN(c4ccccn4)CC3)n2)c1C [Example 271, 2-(2,3-dimethylphenyl)-4-morpholin-4-yl-6-(4-pyridin-2-ylpiperazin-1-yl)-1,3,5-triazine]

Same assay, conditions: determined as described in Example 6 (calcium mobilization, antagonist activity); Table II

IC50, ≤ 1 µM:
CC1CCCCN1c1nc(-c2ccc(F)c(Cl)c2)cc(N2CCN(c3ncccc3Cl)C[C@H]2C)n1 (stereo partly drawn) [Example 741, 4-(3-chloro-4-fluorophenyl)-6-[(2R)-4-(3-chloropyridin-2-yl)-2-methylpiperazin-1-yl]-2-(2-methytpiperidin-1-yl)pyrimidine]
CCCN1CCN(c2nc(-c3ccc(F)c(C)c3)cc(N3CCN(c4ncccc4C(F)(F)F)CC3)n2)CC1 [Example 682, 4-(4-fluoro-3-methylphenyl)-2-(4-propylpiperazin-1-yl)-6-{4-[3-(trifluoromethyl)pyridin-2-yl]piperazin-1-yl}pyrimidine]
Cc1cc(-c2cc(N3CCN(c4ncccc4C(F)(F)F)CC3)nc(NS(=O)(=O)C(C)C)n2)ccc1F [Example 690, N-(4-(4-fluoro-3-methylphenyl)-6-{4-[3-(trifluoromethyl)pyridin-2-yl]piperazin-1-yl}pyrimidin-2-yl)propane-2-sulfonamide]
C[C@H](Nc1nc(-c2ccc(F)c(Cl)c2)cc(N2CCN(c3ncccc3C(F)(F)F)CC2)n1)C(=O)O [Example 620, N-(4-(3-chloro-4-fluorophenyl)-6-{4-[3-(trifluoromethyl)pyridin-2-yl]piperazin-1-yl}pyrimidin-2-yl)alanine]
Nc1cccnc1N1CCN(c2cc(-c3ccc(F)c(Cl)c3)nc(N3CCOCC3)n2)CC1 [Example 587, 2-{4-[6-(3-chloro-4-fluorophenyl)-2-morpholin-4-ylpyrimidin-4-yl]piperazin-1-yl}pyridin-3-amine]
Cc1cc(-c2cc(N3CCN(c4ncccc4Cl)C[C@H]3C)nc(N3CCCCC3C)n2)ccc1F (stereo partly drawn) [Example 745, 4-[(2R)-4-(3-chloropyridin-2-yl)-2-methylpiperazin-1-yl]-6-(4-fluoro-3-methylphenyl)-2-(2-methylpiperidin-1-yl)pyrimidine]
C[C@@H]1CN(c2ncccc2C(F)(F)F)CCN1c1cc(-c2ccc(F)c(Cl)c2)nc(N2CCCCC2)n1 [Example 765, 4-(3-chloro-4-fluorophenyl)-6-{(2R)-2-methyt-4-[3-(trifluoromethyl)pyridin-2-yl]piperazin-1-yl}-2-piperidin-1-ylpyrimidine]
COC[C@H]1CCCN1c1nc(-c2ccc(F)c(Cl)c2)cc(N2CCN(c3ncccc3Cl)C[C@H]2C)n1 [Example 733, 4-(3-chloro-4-fluorophenyl)-6-[(2R)-4-(3-chloropyridin-2-yl)-2-methylpiperazin-1-yl]-2-[(2R)-2-(methoxymethyl)pyrrolidin-1-yl]pyrimidine]
